{"source": "paper PMC10691236", "about": "(Proceedings of the National Academy of Sciences of the …, 2023)", "key": {"CDK2/cyclin E1": {"target": "CDK2/cyclin E1 (Homo sapiens, UniProt P24941)", "experiment": "CDK2/cyclin E1 ATPase assay (ADP-Glo; phosphorylation of histone H1)"}, "[1]": {"design": "method as in PMID 27537356", "details": "isolated from A. fumigatus and P. roseopurpurin; ref [30], [31]; cited from earlier work"}, "[2]": {"target": "T1, luciferase-CDK2/cyclin E1 in HEK293 cells (Homo sapiens, UniProt P24941)", "T1 construct": "NV2641 (CCNE1); host or cells: HEK293 (ATCC CRL-1573)", "experiment": "cell-based", "details": "for IC50: average ± SD, n = 6, read-out: IC50, inhibition of luciferase-CDK2/cyclin E1 nanoBRET signal; for inhibition at 50 µM: nanoBRET, read-out: inhibition at the highest concentration tested (IC50 ND)", "protocol": "HEK293 cells were cultured in Roswell Park Memorial Institute (RPMI) (Invitrogen) with 10% fetal bovine serum (FBS; Invitrogen). For transfection, HEK293 cells were trypsinized and resuspended in Opti-MEM I Reduced Serum, no phenol red medium (Invitrogen) with 1% FBS at a concentration of 2 × 10^5 cells/mL. Five hundred microliters of a 10 μg/mL solution of DNA was prepared by adding 1 μg/mL of CDK2-NanoLuc Fusion Vector (Promega; NV2781) to 9 μg/mL of CCNE1 Expression Vector (Promega; NV2641) in Opti-MEM I Reduced Serum, no phenol red media. Thirty microliters of FuGENE HD Transfection Reagent (Promega) was added to each milliliter of DNA mixture. The lipid-DNA mixture was incubated at room temperature for 20 min.\nPosttransfection, the media were replaced with fresh Opti-MEM I Reduced Serum, no phenol red medium. NanoBRET Tracer reagent K-10 […] was added at a concentration of […] (1% DMSO final) along with 0.2% DMSO (± inhibitor). […] Following incubation, plates were removed from the incubator and allowed to equilibrate to room temperature for 15 min. A 3× Complete Substrate Plus Inhibitor Solution was made by adding 30 μL of NanoBRET Nano-Glo Substrate (Promega), 10 μL of Extracellular NanoLuc Inhibitor (Promega), and 4,960 μL of Opti-MEM reduced serum medium, no phenol red (Invitrogen). […] IC50 values were calculated from the dose–response curves using Prism 9 (four-parameter, variable slope). Experiments were performed in triplicate with technical duplicates in each run."}, "[3]": {"details": "read-out: IC50, inhibition of CDK2/cyclin E1-dependent phosphorylation of Histone H1, commercially available depsides and depsidones, n=2"}, "[4]": {"details": "from CDK2/cyclin E1 IC50 values (Fig. 3B)"}}, "note": "Read-outs that look alike come from different tables or passages of the source."}
{"molecule": "C/C=C(\\C)c1cc(O)c(C)c2c1Oc1cc(O)cc(C)c1C(=O)O2", "note": "[unguinol, Unguinol, reference compound]", "values": [{"measurement": "IC50", "setting": "CDK2/cyclin E1; [3]", "result": 14, "unit": "µM"}]}
{"molecule": "Cc1cc(O)c(C=O)c2c1C(=O)Oc1c(COC(=O)/C=C/C(=O)O)c(O)c(C(=O)O)c(C)c1O2", "note": "[Fumarprotocetriaric acid, fumarprotocetraric acid, reference compound]", "values": [{"measurement": "effect on luminescence values in CDK2/cyclin E1 ADP-detection assay", "setting": "CDK2/cyclin E1; commercial compound screen, n=2", "result": "increased luminescence values"}]}
{"molecule": "CO[C@@]1(C)[C@H](O)C(=O)C(C)=C2OC(=O)c3c(C)cc(O)c(C)c3O[C@@H]21", "note": "[compound 1, roseopurpurin C]", "values": [{"measurement": "cytotoxicity", "setting": "[1]", "result": "generally cytotoxic"}]}
{"molecule": "Cc1cc(O)c(C)c2c1Oc1c(C)c(O)cc(C)c1C(=O)O2", "note": "[compound 8, 3,8-dihydroxy-1,4,6,9-tetramethyl-dibenzo[b,e][1,4]dioxepin-11-one]", "values": [{"measurement": "IC50", "setting": "[2]", "result": "27 ± 7", "unit": "µM"}, {"measurement": "IC50", "setting": "CDK2/cyclin E1", "result": "6.1 ± 0.5", "unit": "µM"}]}
{"molecule": "CO[C@@]1(C)[C@H](O)C(O)=C(C)C(=O)[C@@H]1Oc1cc(C)cc(O)c1C", "note": "[compound 11, aculeatusquinone C]", "values": [{"measurement": "inhibition at 50 µM", "setting": "[2]", "result": "≤ 50", "unit": "%"}, {"measurement": "IC50", "setting": "CDK2/cyclin E1", "result": "42 ± 2", "unit": "µM"}, {"measurement": "fold reduction in activity/potency relative to 1", "setting": "CDK2/cyclin E1; [4]", "result": "approximately 900 fold"}]}
{"molecule": "Cc1cc(O)c(C)c(O)c1C(=O)Oc1cc(C)c(C(=O)O)c(O)c1C", "note": "[compound 6, 4-o-demethyl barbatic acid]", "values": [{"measurement": "inhibition at 50 µM", "setting": "[2]", "result": "≤ 50", "unit": "%"}, {"measurement": "inhibition at 100 µM", "setting": "CDK2/cyclin E1; read-out: inhibition at the highest concentration tested (IC50 ND)", "result": "≤ 50", "unit": "%"}]}
{"molecule": "Cc1cc(O)c(C)c2c1C(=O)Oc1c(C)c(O)c(C(=O)O)c(C)c1O2", "note": "[compound 7, hypoprotocetraric acid]", "values": [{"measurement": "improvement of potency by addition of the 4-OH, relative to 8", "setting": "CDK2/cyclin E1; [4]", "result": "approximately ninefold"}]}
{"molecule": "Cc1cc(O)c(C)c2c1C(=O)Oc1c(C)c(O)c(O)c(C)c1O2", "note": "[compound 10, roseopurpurin G]", "values": [{"measurement": "IC50", "setting": "[2]", "result": "40 ± 20", "unit": "µM"}, {"measurement": "cytotoxicity", "setting": "[1]", "result": "generally cytotoxic"}, {"measurement": "IC50", "setting": "CDK2/cyclin E1", "result": "0.7 ± 0.1", "unit": "µM"}]}
{"molecule": "C/C=C(/C)c1cc(O)c(C)c2c1Oc1c(C)c(O)cc(/C(C)=C\\C)c1C(=O)O2", "note": "[folipastatin, reference compound]", "values": [{"measurement": "IC50", "setting": "CDK2/cyclin E1; [3]", "result": 24, "unit": "µM"}]}
